Data published in patent US4500707A, “Nucleosides useful in the preparation of polynucleotides” (University Patents, Inc., priority 1982, dated 1985).
Where “and” joins values, the source holds several entries; their conditions need not be identical. Equal values may be shown once. Values belong to the molecule of their own block, whether it stands above or below them.

Columns and labels:
Assay type in all cases: physicochemical
[1] = Rate of detritylation and degradation of 5'-trityldeoxynucleosides using ZnBr2 at room temperature (Table III); settings: for Detritylation time: 100% detritylation; for Detritylation %: <1 min
Source text: (§1) The procedure merely requires contacting the reactants preferably in a reaction solvent and detritylation occurs within short reaction times. The Lewis acid is normally suspended in the reaction solvent and the solvent is usually water-free to prevent reaction with the Lewis acid to form protic acids. In present experience, nitromethane is the preferred solvent although a variety of other solvents can be used, e.g. dioxane and tetrahydrofuran and mixtures of such solvents with each other and other solvents such as acetone, methylene chloride, and the like.
The results obtained with various tritylthymidines at room temperature with zinc bromide is give in Table III.
The Rate of Detritylation and Degradation of 5'-
Trityldeoxynucleosides Using ZnBr2 at Room

[2] = Rate of detritylation of various tritylthymidines using saturated ZnBr2 in nitromethane at 0° C. (Table IV); settings: for % Detritylation: at the time of the same line (1, 10 or 30 min); for Detritylation time: time for the % detritylation of the same line
Source text: as §1
and at 0° C. in Table IV.
The Rate of Detritylation of Various Tritylthymidines
Using Saturated ZnBr2 in Nitromethane at 0° C.

[3] = Protic acid hydrolysis rates of triarylmethyl groups attached to the 5'-hydroxyl of deoxynucleosides (Table VIII); settings: 2% toluenesulfonic acid in chloroform:methanol (7:3)
Description: The 5'-triarylmethyldeoxynucleosides were treated with protic and Lewis acids using carefully controlled conditions. The results of these studies are also recorded in Tables VII and VIII. […] The rates are more variable with protic acids.
^1 Reaction conditions were 2% toluenesulfonic acid in
chloroform:methanol (7:3). Aliquots were removed from the reaction
solution, quenched with ammonium acetate and analyzed visually after tlc
and exposure to HCl vapors. Time points were taken at 15, 30, 45, 60, 90,

[4] = Rate of detritylation and depurination using various solutions (Table II); settings: for Detritylation time: 100% detritylation
Source text: A particularly preferred embodiment of the present invention is the detritylation of the 5'-O trityl nucleosides, deoxynucleotides, oligonucleotides, oligodeoxynucleotides, polynucleotides and polydeoxynucleotides using a Lewis acid, particularly zinc bromide, although other Lewis acids can also be employed, e.g. titanium tetrachloride. […] The process is also specific for 5'-O-trityl and thus provides a very practical procedure to permit production of 3'-O-trityl blocked nucleosides by reaction with the 3'-O and 5'-O ditritylated compound.
as §1
The Rate of Detritylation and Depurination of 5'-
Dimethoxytrityl-N--benzoyldeoxyadenosine Using
*All depurination results summarized in this communication were obtained
by analyzing reaction mixtures using reverse phase high pressure liquid
chromatography. Estimates of detritylation times were by thin layer
**A nitromethane solution saturated with ZnBr2 is approximately 0.1

[5] = Spectral characteristics of selected triarylmethyl alcohols (Table IX); settings: saturated ZnBr2 nitromethane solution; for Extinction Coefficient: at the λ maximum of the same line
Description: of selected triarylmethyl alcohols.
^2 All spectra were taken in a saturated ZnBr2 nitromethane
solution. All spectra were recorded on a Carey model 21, scanning from 35

SMILES: COc1ccc(C(OC[C@H]2O[C@@H](n3cc(C)c(=O)[nH]c3=O)C[C@@H]2O)(c2ccccc2)c2ccc(OC)cc2)cc1 [5'-Dimethoxytritylthymidine]
- Degradation time [1]: 24 h
- Detritylation time [1]: < 1 min
- Detritylation % [1]: 100%
- % Detritylation [2]: 50%
- Detritylation time [2]: 1 min
- Time to Complete Hydrolysis [3]: 30 s

SMILES: COc1ccc(C(OC[C@H]2O[C@@H](n3cnc4c(NC(=O)c5ccccc5)ncnc43)C[C@@H]2O)(c2ccccc2)c2ccc(OC)cc2)cc1 [5'-O-dimethoxytrityl-N-benzoyldeoxyadenosine]
- Time to Complete Hydrolysis [3]: 30 s
- Depurination time ([4]; 0.5% toluenesulfonic acid/CHCl3:CH3OH (7:3), 0° C., 50% depurination): 8 h
- Detritylation time ([4]; 0.5% toluenesulfonic acid/CHCl3:CH3OH (7:3), 0° C.): 10 min
- Detritylation % ([4]; 0.5% toluenesulfonic acid/CHCl3:CH3OH (7:3), 0° C., 10 min): 100%
- Depurination % ([4]; 0.5% toluenesulfonic acid/CHCl3:CH3OH (7:3), 0° C., 8 hrs): 50%
- Depurination time ([4]; 2% toluenesulfonic acid/CHCl3:CH3OH (7:3), 18° C., 50% depurination): 0.083 h
- Detritylation time ([4]; 2% toluenesulfonic acid/CHCl3:CH3OH (7:3), 18° C.): < 1 min
- Depurination % ([4]; 2% toluenesulfonic acid/CHCl3:CH3OH (7:3), 18° C., 5 min): 50%
- Detritylation % ([4]; 2% toluenesulfonic acid/CHCl3:CH3OH (7:3), 18° C., <1 min): 100%
- Detritylation time ([4]; satd. ZnBr2/CH3NO2, 0° C.): 10 min
- Detritylation % ([4]; satd. ZnBr2/CH3NO2, 0° C., 10 min): 100%
- Depurination % ([4]; satd. ZnBr2/CH3NO2, 0° C., 21 hrs): < 5%
- Depurination time ([4]; satd. ZnBr2/CH3NO2, 0° C., <5% depurination): 21 h
- Depurination time ([4]; satd. ZnBr2/CH3NO2, 18° C., 50% depurination): 10 h
- Detritylation time ([4]; satd. ZnBr2/CH3NO2, 18° C.): < 1 min
- Depurination % ([4]; satd. ZnBr2/CH3NO2, 18° C., 10 hrs): 50%
- Detritylation % ([4]; satd. ZnBr2/CH3NO2, 18° C., <1 min): 100%

SMILES: COc1ccc(C(OC[C@H]2O[C@@H](n3ccc(NC(=O)c4ccccc4)nc3=O)C[C@@H]2O)(c2ccccc2)c2ccc(OC)cc2)cc1 [5'-O-dimethoxytrityl-N-benzoyldeoxycytidine]
- Degradation time [1]: 24 h
- Detritylation time [1]: < 1 min
- Detritylation % [1]: 100%
- Time to Complete Hydrolysis [3]: 30 s

SMILES: COc1ccc(C(OC[C@H]2O[C@@H](n3cnc4c(=O)[nH]c(NC(=O)C(C)C)nc43)C[C@@H]2O)(c2ccccc2)c2ccc(OC)cc2)cc1 [5'-O-dimethoxytrityl-N-isobutyryldeoxyguanosine]
- Degradation time [1]: 50 h
- Detritylation time [1]: < 1 min
- Detritylation % [1]: 100%
- Time to Complete Hydrolysis [3]: 30 s

SMILES: COc1ccccc1C(O)(c1ccccc1)c1ccccc1OC [R1 = R2 = b; R3 = a]
- λ Maximum(s) [5]: 423 nanometers and 503 nanometers and 586 nanometers

SMILES: COc1ccccc1C(O)(c1ccccc1OC)c1cccc2ccccc12 [R1 = R2 = b; R3 = n]
- λ Maximum(s) [5]: 586 nanometers
- Extinction Coefficient [5]: 15500 Molar^-1 cm^-1

SMILES: COc1ccc(C(O)(c2ccccc2)c2cccc3ccccc23)cc1 (stereo not shown) [R1 = a; R2 = c; R3 = n]
- λ Maximum(s) [5]: 545 nanometers and 455 nanometers
- Extinction Coefficient [5]: 25000 Molar^-1 cm^-1 and 28000 Molar^-1 cm^-1

SMILES: OC(c1ccccc1)(c1ccc(F)cc1)c1cccc2ccccc12 (stereo not shown) [R1 = a; R2 = e; R3 = n]
- λ Maximum(s) ([5]; listed as R1 = a, R2 = n, R3 = e): 577 nanometers and 421 nanometers

SMILES: Cc1ccc(C(OC[C@H]2O[C@@H](n3cnc4c(NC(=O)c5ccccc5)ncnc43)C[C@@H]2O)(c2ccccc2)c2ccccc2)cc1 [R1 = h; R2 = R3 = a, A]
- Time to Complete Hydrolysis [3]: 240 s
- t1/2 in H+ [3]: 60 s

SMILES: Cc1ccc(C(O)(c2ccccc2)c2ccccc2)cc1 [R1 = h; R2 = R3 = a]
- λ Maximum(s) [5]: 452 nanometers
- Extinction Coefficient [5]: 42000 Molar^-1 cm^-1

Further lines, results first:

- % Detritylation [2]: 50%
- Detritylation time [2]: 10 min
SMILES: Cc1cn([C@H]2C[C@H](O)[C@@H](COC(c3ccccc3)(c3ccccc3)c3ccccc3)O2)c(=O)[nH]c1=O [5'-Tritylthymidine]

- Time to Complete Hydrolysis [3]: 45 s
- t1/2 in H+ [3]: 15 s
SMILES: COc1ccccc1C(OC[C@H]1O[C@@H](n2cnc3c(=O)[nH]c(NC(=O)C(C)C)nc32)C[C@@H]1O)(c1ccccc1)c1ccccc1OC [R1 = R2 = b; R3 = a, G]

- Time to Complete Hydrolysis [3]: 120 s
SMILES: COc1ccccc1C(OC[C@H]1O[C@@H](n2ccc(NC(=O)c3ccccc3)nc2=O)C[C@@H]1O)(c1ccccc1OC)c1cccc2ccccc12 [R1 = R2 = b; R3 = n, C]

- Time to Complete Hydrolysis [3]: 90 s
- t1/2 in H+ [3]: 45 s
SMILES: COc1ccccc1C(OC[C@H]1O[C@@H](n2cc(C)c(=O)[nH]c2=O)C[C@@H]1O)(c1ccccc1OC)c1cccc2ccccc12 [R1 = R2 = b; R3 = n, T]

- Time to Complete Hydrolysis [3]: 45 s
- t1/2 in H+ [3]: 30 s
SMILES: COc1ccc(C(OC[C@H]2O[C@@H](n3cc(C)c(=O)[nH]c3=O)C[C@@H]2O)(c2ccccc2)c2cccc3ccccc23)cc1 (stereo partly shown) [R1 = n; R2 = c; R3 = a, T]

- Time to Complete Hydrolysis [3]: > 600 s
- t1/2 in H+ [3]: 180 s
SMILES: Cc1cn([C@H]2C[C@H](O)[C@@H](COC(c3ccccc3)(c3ccc(F)cc3)c3cccc4ccccc34)O2)c(=O)[nH]c1=O (stereo partly shown) [R1 = n; R2 = e; R3 = a, T]
